Series [1] relates to A549. The experiment in a line: Cytotoxicity against human A549 cells after 14 hrs by CCK-8 assay. In kind it is functional, cell-based. To be noted: A549, 14 h.
Series [2] concerns HeLa. As to the kind of experiment: Cytotoxicity against human HeLa cells after 14 hrs by CCK-8 assay. It is filed as functional, cell-based.
The subject of series [3] is MCF7. As to the kind of experiment: Cytotoxicity against human MCF7 cells after 14 hrs by CCK-8 assay. It is filed as functional, cell-based. To be noted: MCF7, 14 h.
Series [4] has as its system LoVo. The experiment in a line: Cytotoxicity against human LoVo cells after 14 hrs by CCK-8 assay. It is filed as functional, cell-based.
A short description of series [5]: Cytotoxicity against human PNT2 cells at 8.6 to 2200 uM after 14 hrs by CCK-8 assay. It is filed as cell-based. The settings on record: pnt2, 14 h.
Series [6] has as its system LoVo. As to the kind of experiment: Induction of apoptosis in human LoVo cells assessed as viable cells at 17 uM after 4 hrs by FITC Annexin-V/propidium iodide staining-based flow cytometry (reference value: 79.50%). It is filed as functional. The settings on record: read-out: Activity.
Series [7] relates to LoVo. As to the kind of experiment: Induction of apoptosis in human LoVo cells assessed as viable cells at 137 uM after 4 hrs by FITC Annexin-V/propidium iodide staining-based flow cytometry (reference value: 79.50%). The settings on record: read-out: Activity. It is filed as functional.
Series [8] deals with LoVo. The experiment in a line: Induction of apoptosis in human LoVo cells assessed as apoptotic cells at 17 uM after 4 hrs by FITC Annexin-V/propidium iodide staining-based flow cytometry (reference value: 20.50%). In kind it is functional.
Series [9] relates to LoVo. As to the kind of experiment: Induction of apoptosis in human LoVo cells assessed as apoptotic cells at 137 uM after 4 hrs by FITC Annexin-V/propidium iodide staining-based flow cytometry (reference value: 20.50%). In kind it is functional.
Series [10] relates to A549. The experiment in a line: Induction of apoptosis in human A549 cells assessed as viable cells at 8.6 uM after 4 hrs by FITC Annexin-V/propidium iodide staining-based flow cytometry (reference value: 84.40%). In kind it is functional. The settings on record: A549, 4 h, read-out: Activity.
In series [11] the test system is A549. The experiment in a line: Induction of apoptosis in human A549 cells assessed as viable cells at 69 uM after 4 hrs by FITC Annexin-V/propidium iodide staining-based flow cytometry (reference value: 84.40%). It is filed as functional. The settings on record: A549, 4 h, read-out: Activity.
Series [12] concerns A549. The experiment in a line: Induction of apoptosis in human A549 cells assessed as apoptotic cells at 8.6 uM after 4 hrs by FITC Annexin-V/propidium iodide staining-based flow cytometry (reference value: 15.60%). In kind it is functional.
Series [13] concerns A549. The experiment in a line: Induction of apoptosis in human A549 cells assessed as apoptotic cells at 69 uM after 4 hrs by FITC Annexin-V/propidium iodide staining-based flow cytometry (reference value: 15.60%). It is filed as functional.
Series [14] concerns MCF7. As to the kind of experiment: Induction of apoptosis in human MCF7 cells assessed as viable cells at 4.3 uM after 4 hrs by FITC Annexin-V/propidium iodide staining-based flow cytometry (reference value: 70.40%). The settings on record: MCF7, 4 h, read-out: Activity. In kind it is functional.
For series [15], the system named is MCF7. The experiment in a line: Induction of apoptosis in human MCF7 cells assessed as viable cells at 34 uM after 4 hrs by FITC Annexin-V/propidium iodide staining-based flow cytometry (reference value: 70.40%). In kind it is functional. The settings on record: MCF7, 4 h, read-out: Activity.
For series [16], the system named is MCF7. The experiment in a line: Induction of apoptosis in human MCF7 cells assessed as apoptotic cells at 4.3 uM after 4 hrs by FITC Annexin-V/propidium iodide staining-based flow cytometry (reference value: 29.60%). In kind it is functional.
In series [17] the test system is MCF7. The experiment in a line: Induction of apoptosis in human MCF7 cells assessed as apoptotic cells at 34 uM after 4 hrs by FITC Annexin-V/propidium iodide staining-based flow cytometry (reference value: 29.60%). It is filed as functional.
Series [18] deals with HeLa. The experiment in a line: Induction of apoptosis in human HeLa cells assessed as viable cells at 8.6 uM after 4 hrs by FITC Annexin-V/propidium iodide staining-based flow cytometry (reference value: 87.00%). It is filed as functional. To be noted: read-out: Activity.
Series [19] deals with HeLa. The experiment in a line: Induction of apoptosis in human HeLa cells assessed as viable cells at 69 uM after 4 hrs by FITC Annexin-V/propidium iodide staining-based flow cytometry (reference value: 87.00%). The settings on record: read-out: Activity. It is filed as functional.
Series [20] concerns HeLa. As to the kind of experiment: Induction of apoptosis in human HeLa cells assessed as apoptotic cells at 8.6 uM after 4 hrs by FITC Annexin-V/propidium iodide staining-based flow cytometry (reference value: 13.00%). It is filed as functional.
Series [21] concerns HeLa. The experiment in a line: Induction of apoptosis in human HeLa cells assessed as apoptotic cells at 69 uM after 4 hrs by FITC Annexin-V/propidium iodide staining-based flow cytometry (reference value: 13.00%). It is filed as functional.
Series [22] in a line: Lipophilicity, log P of the compound. It is filed as physicochemical. To be noted: octanol/water.
Series [23] concerns LoVo. As to the kind of experiment: Induction of apoptosis in human LoVo cells assessed as viable cells at 69 uM after 4 hrs by FITC Annexin-V/propidium iodide staining-based flow cytometry (reference value: 79.50%). In kind it is functional. To be noted: read-out: Activity.
The test system of series [24] is LoVo. As to the kind of experiment: Induction of apoptosis in human LoVo cells assessed as viable cells at 550 uM after 4 hrs by FITC Annexin-V/propidium iodide staining-based flow cytometry (reference value: 79.50%). To be noted: read-out: Activity. In kind it is functional.
Series [25] relates to LoVo. The experiment in a line: Induction of apoptosis in human LoVo cells assessed as apoptotic cells at 69 uM after 4 hrs by FITC Annexin-V/propidium iodide staining-based flow cytometry (reference value: 20.50%). In kind it is functional.
In series [26] the test system is LoVo. As to the kind of experiment: Induction of apoptosis in human LoVo cells assessed as apoptotic cells at 550 uM after 4 hrs by FITC Annexin-V/propidium iodide staining-based flow cytometry (reference value: 20.50%). In kind it is functional.
Series [27] concerns A549. As to the kind of experiment: Induction of apoptosis in human A549 cells assessed as viable cells at 550 uM after 4 hrs by FITC Annexin-V/propidium iodide staining-based flow cytometry (reference value: 84.40%). The settings on record: A549, 4 h, read-out: Activity. It is filed as functional.
Series [28] concerns A549. As to the kind of experiment: Induction of apoptosis in human A549 cells assessed as apoptotic cells at 550 uM after 4 hrs by FITC Annexin-V/propidium iodide staining-based flow cytometry (reference value: 15.60%). In kind it is functional.
Series [29] relates to MCF7. The experiment in a line: Induction of apoptosis in human MCF7 cells assessed as viable cells at 275 uM after 4 hrs by FITC Annexin-V/propidium iodide staining-based flow cytometry (reference value: 70.40%). In kind it is functional. The settings on record: MCF7, 4 h, read-out: Activity.
The test system of series [30] is MCF7. The experiment in a line: Induction of apoptosis in human MCF7 cells assessed as apoptotic cells at 275 uM after 4 hrs by FITC Annexin-V/propidium iodide staining-based flow cytometry (reference value: 29.60%). In kind it is functional.
Series [31] has as its system HeLa. The experiment in a line: Induction of apoptosis in human HeLa cells assessed as viable cells at 550 uM after 4 hrs by FITC Annexin-V/propidium iodide staining-based flow cytometry (reference value: 87.00%). It is filed as functional. To be noted: read-out: Activity.
The test system of series [32] is HeLa. As to the kind of experiment: Induction of apoptosis in human HeLa cells assessed as apoptotic cells at 550 uM after 4 hrs by FITC Annexin-V/propidium iodide staining-based flow cytometry (reference value: 13.00%). In kind it is functional.

Consider `CC(=O)OC[C@H]1O[C@@H](S[C@H]2CC(=O)[C@@H]3OC[C@H]2O3)[C@H](OC(C)=O)[C@@H](OC(C)=O)[C@@H]1OC(C)=O`, for which the IC50 in series [1] was determined as 119 µM; in series [2] it was 91.4 µM; in [3] it was 47.1 µM; in series [4] it was 166 µM. Moreover, the Activity in series [5] is 10%; in [8] it was 27.55%; in series [9] it was 30.3%; in series [12] it was 23.6%; in series [13], 24.2%; in [16], 36.9%. For the same compound, the results for the Activity in series [17], in [20] and in series [21] were 31.25%, 20% and 36.9%, respectively. In addition, in series [6], the viability at 17 µM was determined as 72.5%. Also, the viability at 137 µM in series [7] amounted to 69.7%. In addition, the results for the viability at 8.6 µM in [10] and in [18] were 76.4% and 80%, respectively. For the same compound, the viability at 69 µM came out at 75.8% in series [11] and 63.1% in [19]. For the same compound, in series [14], the viability at 4.3 µM came to 63.1%. The viability at 34 µM in [15] worked out at 68.8%. Moreover, the logP in series [22] was -1.13.
In the case of `O=C1C[C@H](S[C@@H]2O[C@H](CO)[C@@H](O)[C@H](O)[C@H]2O)[C@H]2CO[C@@H]1O2`, the IC50 in [1] is 692 µM; in [2], 1080 µM; in [3], 366 µM; in series [4] it was 772 µM. In addition, the Activity was 10% in series [5]; 29% in series [25]; 37.65% in [26]; 29.7% in [13]; 25.7% in [28]; 24.9% in series [17]. For the same compound, the Activity worked out at 73.6% in series [30], 17.4% in series [21] and 32.8% in [32]. For the same compound, the viability at 69 µM in [23] is 71%; in series [11], 70.3%; in [19] it was 82.6%. Moreover, the values for the viability at 550 µM in series [24], in series [27] and in series [31] were 62.4%, 74.3% and 67.2%, respectively. For the same compound, the viability at 34 µM in [15] stood at 75.1%. Besides, the viability at 275 µM in [29] stood at 26.4%. The compound also registered a logP in series [22] of -2.05.
